[5FU] = 5-fluorouracil base replacing uracil
Legend:
[1] = test system: YAP1, BMI1, DCLK1 and BCL2; test: Western blot of miR-15a targets in HCT-116 colon cancer stem cells; assay type: cell-based, human; details: three days following transfection
Description: Western immunoblot analysis: […], equal amounts of protein (15 μg) extracted from cells lysed in RIPA buffer with protease inhibitor (Sigma) and were separated on 10%-12% sodium dodecyl sulfate-polyacrylamide gels using standard procedures. The primary antibodies used for the analysis were rabbit anti-YAP1 monoclonal antibody (1:10000) (Cell Signaling Technologies), anti-DLCK1 (1:500) (Abcam), anti-BCL2 (1:500) (NeoMarkers), anti-MDC1 (1:500), anti-SUZ12 (1:500), anti-pChk-1 (1:500), anti beta-actin (1:500), anti-BMI-1 (1:10000) (Cell Signaling Technologies), mouse anti-human TS antibody (1:500), anti-α-tubulin (1:50000) (Santa Cruz Biotech Inc.), anti-GAPDH (1:100000) (Santa Cruz Biotech Inc.), anti-E2F3 (1:500) (Santa Cruz Biotech Inc.), Horseradish peroxidase-conjugated antibodies against mouse or rabbit (1:5000, Santa Cruz Biotech Inc.) were used as the secondary antibodies. Protein bands were visualized with autoradiography film using SuperSignal West Pico Chemiluminescent Substrate (Thermo Fischer). Western blot density was quantified using Image J software. […]

[2] = test system: HCT116 derived colon cancer stem cells; assay type: cell-based
Description: For transfections, 1×10^5 cells were plated in six-well plates and transfected with 100 nM of control non-specific miRNA (Thermo Fischer), a modified microRNA, or exogenous native microRNA after 24 hours using Oligofectamine (Thermo Fischer) following the manufacturer's protocols. For reagent free transfection, cells were plated in 6 well plates at (1×10^5) cells per well. Twenty-four hours later 100 pmol miRNA (Control, miR-15a, Mimic-1) were diluted in Optimem (Thermo Fischer) and added to the plate. Media was changed after 24 hours. Media was supplemented with 10% fetal bovine serum (Thermo Fischer). Briefly, cells were cultured in growth media (DMEM/F12 supplemented with B27, 10 ng/mL bFGF, and 20 ng/mL EGF (Life Technologies) in ultra-low attachment flasks) for up to 6 days. The spheroid cells were maintained by collection through gentle centrifugation, dissociation to single cells and replating.
miR-129 mimics eliminated chemotherapy resistant colon cancer stem cells. To determine the impact of certain exemplary modified microRNAs of the present disclosure (i.e., miR-129 mimics) on 5-FU resistant colon cancer stem cells, HCT116 derived colon cancer stem cells were treated with various concentrations of Mimic-1 or 5-FU.

cancer cells = test: Real-time qRT-PCR of modified miR entry into cancer cells; assay type: cell-based, human; details: quantitative Real-Time PCR
Description: Real-time qRT-PCR analysis of nucleic acid expression. The expression levels of microRNAs in cancer cells were quantified. Briefly, the primers specific to the microRNA of interest and an internal control RNU44 gene were purchased from Ambion. cDNA synthesis was performed by the High Capacity cDNA Synthesis Kit (Applied Biosystems) with miRNA-specific primers. Real-time qRT-PCR was carried out on an Applied Biosystems 7500 Real-Time PCR machine with miRNA-specific primers by TaqMan Gene Expression Assay (Applied Biosystems). Expression level of the exemplary miRs of the present disclosure was calculated by the ΔΔCT method based on the internal control RNU44, normalized to the control group and plotted as relative quantification.

[3] = test system: HCT116, RKO, SW480, and SW620 colon cancer cells; test: FITC-Annexin V apoptosis assay; design: species or system human; details: FACS-based FITC-Annexin assay, all 4 colon cancer cell lines, compared to native miR-129 and negative control miRNA
Description: Apoptosis Assay. To distinguish between early and late apoptosis, a fluorescein isothiocyanate (FITC)—Annexin assay was done (Becton Dickinson). HCT116, RKO, SW480 and SW620 cells were plated into 6 well plates (1×10^5) cells per well, after 24 h, cells were transfected with 25 nM modified miRNAs using Oligofectamine. Forty-eight hours after transfection, cells were harvested, stained with propidium iodide and anti-annexin-V antibody (Annexin V-FITC Apoptosis Detection kit, Invitrogen, CA, USA) following the manufacturer's protocol, and stained cells were detected by flow cytometry.

Row | Substance | protein levels of YAP1, BMI1, DCLK1 and BCL2 [1] | proliferation of HCT116 colon cancer stem cells ([2]; 25 nM, day 6) | elimination of 5-FU resistant colon cancer stem cells ([2]; 100 nM) | killing of 5-FU resistant cancer stem cells, dose dependence ([2]; increasing concentrations, FIG. 6) | entry into cancer cells (cancer cells) | induction of apoptosis [3]
1 | U^FAGCAGCACAU^FAAU^FGGU^FU^FU^FGU^FG (UAGCAGCACAUAAUGGUUUGUG; RNA, [5FU] at 1, 11, 14, 17, 18, 19, 21, backbone not given here) [modified miR-15a] | reduced |  |  |  |  | 
2 | CU^FU^FU^FU^FU^FGCGGU^FCU^FGGGCU^FU^FGC (CUUUUUGCGGUCUGGGCUUGC; RNA, [5FU] at 2, 3, 4, 5, 6, 11, 13, 18, 19, backbone not given here) [modified miR-129] |  | nearly completely blocked | over 80% | killed 5-FU resistance cancer stem cells in a dose dependent manner | enter cancer cells | 2 to 30 fold

Source: patent US12319913B2, “5-halouracil-modified microRNAs and their use in the treatment of cancer” (The Research Foundation for The State University of New York, priority 2018, dated 2025)
